According to patent publication US10005767B2, “Compositions and methods for inhibition of the JAK pathway” (Rigel Pharmaceuticals, Inc., priority 2009, dated 2018):
Where a name gives a salt, the structure may show the parent alone.

These compounds were tested on human primary T-cells, IL-2 stimulated proliferation (JAK-1 and JAK-3 dependent; reported as JAK3 activity) (assay: Human primary T-cell proliferation stimulated by IL-2 (Example 3)). Conditions: Homo sapiens, T-cell, tested under conditions described in Example 3 (IL-2 stimulated human primary T-cell proliferation); read-out: ability to inhibit JAK3 activity, IC50 range (Table V).
Assay type: cell-based
Text: The activity of the compounds described herein can further be characterized by assaying the effect of the 2,4-pyrimidinediamine compounds described herein on the proliferative response of primary human T-cells. In this assay, primary human T-cells derived from peripheral blood and pre-activated through stimulation of the T-cell receptor and CD28, proliferate in culture in response to the cytokine Interleukin-2 (IL-2). This proliferative response is dependent on the activation of JAK1 and JAK3 tyrosine kinases, which phosphorylate and activate the transcription factor Stat-5. The primary human T-cells are incubated with the 2,4-pyrimidinediamine compounds in the presence of IL-2 for 72 hours, and at the assay endpoint intracellular ATP concentrations are measured to assess cell viability. A reduction in cell proliferation compared to control conditions is indicative of inhibition of the JAK kinase pathway.
Primary human T-cells derived from peripheral blood and pre-activated through stimulation of the T-cell receptor and CD28, proliferate in vitro in response to the cytokine Interleukin-2 (IL-2). This proliferative response is dependent on the activation of JAK-1 and JAK-3 tyrosine kinases, which phosphorylate and activate the transcription factor Stat-5.
Human primary T cells were prepared as follows. […] The lymphocytes at the serum: ficoll interface were recovered and washed twice with 5 volumes of PBS. […] The primary T-cells were stimulated for 3-4 days, then transferred to a fresh flask and maintained in RPMI with 10% FBS and 40 U/mL IL-2.
The day prior to the assay set up, primary T-cells were centrifuged and resuspended in fresh RPMI with 10% FBS but without IL-2 and starved overnight. For the assay, the primary T-cells were centrifuged and resuspended Yssel's medium at 2×10^6 cells/mL. 50 μL of cell suspension containing 80 U/mL IL-2 was added to each well of a flat bottom 96 well black plate. For the unstimulated control, IL-2 was omitted from the last column on the plate. […] 50 μL of 2× compound was added per well in duplicate and the cells were allowed to proliferate for 72 hours at 37° C.
Proliferation was measured using CellTiter-Glo® Luminescent Cell Viability Assay (Promega), which determines the number of viable cells in culture based on quantitation of the ATP present, as an indicator of metabolically active cells. The substrate was thawed and allowed to come to ambient temperature. After mixing the Cell Titer-Glo reagent and diluent together, 100 μL was added to each well. The plates were mixed on an orbital shaker for two minutes to induce lysis and incubated at ambient temperature for an additional ten minutes to allow the signal to equilibrate.
The compound designations in Table V are consistent with those of Tables I-IV above.
With `Cc1cnc(Nc2ccc(NS(C)(=O)=O)nc2)nc1Nc1ccc2oc(=O)[nH]c2c1` [II-78, N-(5-(5-methyl-4-(2-oxo-2,3-dihydrobenzo[d]oxazol-5-ylamino)pyrimidin-2-ylamino)pyridin-2-yl)methanesulfonamide] the IC50 was under 500 nM. `Cc1cnc(Nc2ccc3cnoc3c2)nc1Nc1ccc2oc(=O)[nH]c2c1` [IV-5, N4-(benzo[d]oxazol-2(3H)-on-5-yl)-N2-(1,2-benzisoxazol-6-yl)-5-methylpyrimidine-2,4-diamine] gave an IC50 of under 500 nM. `Cc1cnc(Nc2ccc(C(C)N3CCOCC3)cc2)nc1Nc1ccc2oc(=O)[nH]c2c1` (stereo not drawn) [Compound I-204, 5-(5-methyl-2-(4-(1-morpholinoethyl)phenylamino)pyrimidin-4-ylamino)benzo[d]oxazol-2(3H)-one] was tested, and the IC50 was under 500 nM. For `COCCOc1ccc(Nc2ncc(C)c(Nc3ccc4oc(=O)[nH]c4c3)n2)cc1C(F)(F)F` [Compound I-165, 5-{2-[4-(2-Methoxy-ethoxy)-3-trifluoromethyl-phenylamino]-5-methyl-pyrimidin-4-ylamino}-3H-benzooxazol-2-one], the IC50 was under 500 nM. Compound `Cc1cnc(Nc2ccc(C(=O)NC3CCC3)cc2)nc1Nc1ccc2oc(=O)n(COP(=O)(O)O)c2c1` [Compound I-150, (5-(2-(4-(cyclobutylcarbamoyl)phenylamino)-5-methylpyrimidin-4-ylamino)-2-oxobenzo[d]oxazol-3(2H)-yl)methyl dihydrogen phosphate] has an IC50 of under 500 nM. In the case of `Cc1cnc(Nc2ccc(N3CCN(C(=O)OC(C)(C)C)C(C)C3)nc2)nc1Nc1ccc2oc(=O)[nH]c2c1` (stereo not drawn) [II-11, N4-(benzo[d]oxazol-2(3H)-on-5-yl)-N2-(6-(3-methyl-4-tert-butoxycarbonylpiperazin-1-yl)pyridin-3-yl)-5-methylpyrimidine-2,4-diamine], the IC50 is reported as under 500 nM. In the case of `Cc1cnc(Nc2ccc(C(=O)N3CCN(CC4CC4)CC3)nc2)nc1Nc1ccc2oc(=O)[nH]c2c1` [II-46, 5-{2-[6-(4-Cyclopropylmethyl-piperazine-1-carbonyl)-pyridin-3-ylamino]-5-methyl-pyrimidin-4-ylamino}-3H-benzooxazol-2-one], the IC50 is reported as 500 to 5000 nM. Compound `COc1cc(Nc2ncc(C)c(Nc3ccc4oc(=O)[nH]c4c3)n2)cc(Cl)c1OC` [Compound I-458, 5-(2-(3-chloro-4,5-dimethoxyphenylamino)-5-methylpyrimidin-4-ylamino)benzo[d]oxazol-2(3H)-one] has an IC50 of under 500 nM. In the case of `Cc1cnc(Nc2cc(C(C)NC(C)C)cc(C(F)(F)F)c2)nc1Nc1ccc2oc(=O)[nH]c2c1` (stereo not drawn) [Compound I-473, 5-(2-(3-(1-(isopropylamino)ethyl)-5-(trifluoromethyl)phenylamino)-5-methylpyrimidin-4-ylamino)benzo[d]oxazol-2(3H)-one], the IC50 is reported as under 500 nM. Work on `Cc1cnc(Nc2ccc(C(C)NC(C)C)cc2)nc1Nc1ccc2oc(=O)[nH]c2c1` (stereo not drawn) [Compound I-207, 5-(2-(4-(1-(isopropylamino)ethyl)phenylamino)-5-methylpyrimidin-4-ylamino)benzo[d]oxazol-2(3H)-one] yielded an IC50 of under 500 nM. With `O=c1[nH]c2cc(Nc3nc(Nc4ccc(OC(F)(F)F)cc4)ncc3F)ccc2o1` [Compound I-109, N4-(benzoxazolin-2-on-5-yl)-N2-(4-trifluoromethoxyphenyl)-5-fluoropyrimidine-2,4-diamine trifluoroacetate salt] the IC50 was under 500 nM. Work on `Cc1cnc(Nc2cccc(S(N)(=O)=O)c2)nc1Nc1cc(F)c2oc(=O)[nH]c2c1` [Compound I-248, 3-(4-(7-fluoro-2-oxo-2,3-dihydrobenzo[d]oxazol-5-ylamino)-5-methylpyrimidin-2-ylamino)benzenesulfonamide] yielded an IC50 of under 500 nM. `Cc1cnc(Nc2cc(C(=O)NC3CCC3)cc(C(F)(F)F)c2)nc1Nc1ccc2oc(=O)[nH]c2c1` [Compound I-469, N-Cyclobutyl-3-[5-methyl-4-(2-oxo-2,3-dihydro-benzooxazol-5-ylamino)-pyrimidin-2-ylamino]-5-trifluoromethyl-benzamide] was tested, and the IC50 was under 500 nM. `Cc1cnc(Nc2ccc(N3CCN(C)CC3)nc2)nc1Nc1ccc2oc(=O)n(C(C)C)c2c1` [II-7, N2-(6-(4-methylpiperazin-1-yl)pyridin-3-yl)-N4-(3-isopropylbenzo[d]oxazol-2(3H)-on-5-yl)-5-methylpyrimidine-2,4-diamine] gave an IC50 of under 500 nM. `COc1ccc(Nc2ncc(C)c(Nc3cc(F)c4oc(=O)[nH]c4c3)n2)cc1C` [Compound I-431, 7-fluoro-5-(2-(4-methoxy-3-methylphenylamino)-5-methylpyrimidin-4-ylamino)benzo[d]oxazol-2(3H)-one] was tested, and the IC50 was under 500 nM.

Same assay, conditions: tested under conditions described in Example 3 (IL-2 stimulated human primary T-cell proliferation); read-out: ability to inhibit JAK3 activity, IC50 range (Table V)
In the case of `Cc1cnc(Nc2cccc(-c3ccncc3)c2)nc1Nc1ccc2oc(=O)[nH]c2c1` [Compound I-289, 5-methyl-N4-(2-oxo-2,3-dihydro-1,3-benzoxazol-5-yl)-N2-[3-(pyridin-4-yl)]phenyl-2,4-pyrimidinediamine], the IC50 is reported as under 500 nM. For `Cc1ccc(Nc2ncc(F)c(Nc3ccc4oc(=O)[nH]c4c3)n2)cc1NS(C)(=O)=O` [Compound I-84, N2-((3-methylsulfonylamino-4-methyl)phenyl)-N4-(2-oxo-2,3-dihydrobenzo[d]oxazol-5-yl)-5-fluoropyrimidine-2,4-diamine], the IC50 was under 500 nM. In the case of `Cc1cc(Nc2ncc(C)c(Nc3ccc4oc(=O)[nH]c4c3)n2)cc(C(F)(F)F)c1` [Compound I-479, 5-methyl-N2-(3-methyl-5-trifluoromethyl)phenyl-N4-(2-oxo-2,3-dihydro-1,3-benzoxazol-5-yl)-2,4-pyrimidinediamine], the IC50 is reported as under 500 nM. Work on `Cc1ccc(Nc2ncc(C)c(Nc3ccc4oc(=O)n(C)c4c3)n2)cc1NS(C)(=O)=O` [Compound I-82, N2-((3-methylsulfonylamino-4-methyl)phenyl)-N4-(3-methyl-2-oxo-2,3-dihydrobenzo[d]oxazol-5-yl)-5-methylpyrimidine-2,4-diamine] yielded an IC50 of under 500 nM. `Cc1cnc(Nc2cccc(NS(C)(=O)=O)c2)nc1Nc1ccc2c(c1)n(C)c(=O)n2C` [Compound I-37, N4-(1,3-dimethylbenzimidazolin-2-on-5-yl)-N2-((3-methylsulfonylamino)phenyl)-5-methylpyrimidine-2,4-diamine] gave an IC50 of under 500 nM. `Cc1cnc(Nc2ccc(OCCCO)nc2)nc1Nc1ccc2oc(=O)[nH]c2c1` [II-148, N2-[2-(3-hydroxy)propoxypyridin-5-yl]-5-methyl-N4-(2-oxo-2,3-dihydro-1,3-benzoxazol-5-yl)-2,4-pyrimidinediamine] was tested, and the IC50 was 500 to 5000 nM. For `Cc1cnc(Nc2cc(OC(F)F)cc(C(F)(F)F)c2)nc1Nc1ccc2oc(=O)[nH]c2c1` [Compound I-353, N2-(3-difluoromethoxy-5-trifluoromethyl)phenyl-5-methyl-N4-(2-oxo-2,3-dihydro-1,3-benzoxazol-5-yl)-2,4-pyrimidinediamine], the IC50 was under 500 nM. For `Cc1cnc(Nc2ccc(NS(C)(=O)=O)cc2)nc1Nc1ccc2[nH]c(=O)oc2c1` [Compound I-103, N2-((4-methylsulfonylamino)phenyl)-N4-(2-oxo-2,3-dihydrobenzo[d]oxazol-6-yl)-5-methylpyrimidine-2,4-diamine], the IC50 was over 10000 nM. In the case of `Cc1cnc(Nc2ccc(C(=O)N3CCN(C)CC3)cc2)nc1Nc1ccc2oc(=O)[nH]c2c1` [Compound I-322, 5-methyl-N2-[4-(4-methylpiperazin-1-yl)carbonyl]phenyl-N4-(2-oxo-2,3-dihydro-1,3-benzoxazol-5-yl)-2,4-pyrimidinediamine], the IC50 is reported as under 500 nM.
